Experiments:
[1] = system: Myzus persicae; test: Myzus persicae-Test (sprayed cabbage leaves); assay type: in vivo; conditions: 144 h, after 6 d, spray on cabbage leaves
Protocol: (§1) Solvent: 7 parts by weight of dimethylformamide Emulsifier: 2 parts by weight of alkylaryl polyglycolether
(§2) To produce a suitable preparation of active compound, 1 part by weight of active compound is mixed with the stated amount of solvent and emulsifier, and the concentrate is diluted with emulsifier-containing water to the desired concentration.
Cabbage leaves (Brassica oleracea) which are heavily infested by the green peach aphid (Myzus persicae) are treated by being sprayed with the preparation of the active compound at the desired concentration.
After the specified period of time, the mortality in % is determined. 100% means that all the aphids have been killed; 0% means that none of the aphids have been killed.

[2] = system: Phaedon cochleariae; test: Phaedon cochleariae-Test (larvae, sprayed cabbage leaves); assay type: in vivo; conditions: 144 h, after 6 d, spray on cabbage leaves
Protocol: as §1, §2
Cabbage leaves (Brassica oleracea) are treated by being sprayed with the preparation of the active compound in the desired concentration and are infested with larvae of the mustard beetle (Phaedon cochleariae) as long as the leaves are still moist.
After the specified period of time, the mortality in % is determined. 100% means that all the beetle larvae have been killed; 0% means that none of the beetle larvae have been killed.

SMILES	mortality at 0.8 ppm ([1]; 0.8 ppm)	mortality at 4 ppm ([2]; 4 ppm)	mortality at 200 ppm [1]	mortality at 200 ppm ([2]; 200 ppm)
CN/C(=N\[N+](=O)[O-])NCc1cnc(Cl)s1 [Clothianidin, clothianidin]	65%	55%	–	–
COCC(=O)N(c1c(C)cccc1C)C(C)C(=O)OC (centres unmarked) [Metalaxyl, metalaxyl]	–	–	0%	–
CC(C)C1CCC(Cc2ccc(Cl)cc2)C1(O)Cn1cncn1 (centres unmarked) [Ipconazole, ipconazole]	–	–	10%	5%

Source: patent US20100316746A1, “Pesticidal Compound Mixtures” (Bayer CropScience AG, priority 2007, published 2010)
